Key:
Format in all cases: cell-based, E. coli
[1] = tested on: MG1655-ΔnadC with pPro-nadB_pCJ1-nadA; assay: Sensitivity to quinolinic acid of strain producing quinolinic acid (growth in LB+1% glucose broth); details: 33° C., 16 to 24 hours
Description: (§1) First, to attenuate growth and development in the production strains, it was confirmed whether the addition of 13 g/L of quinolinic acid, in which KOH was titrated to a 7.0 pH, had influence or not. That is, a single colony of the strain producing quinolinic acid was inoculated in 25 mL of a LB+1% glucose broth (10 g/L of yeast extract, 5 g/L of NaCl, 10 g/L of tryptone, […] of kanamycin, and 10 g/L of glucose) by 1 platinum loop, and then, incubated with 250 rpm at 33° C. for 16 to 24 hours. Then, the OD600, the glucose consumption, and the residual quinolinic acid of the strain were measured.

[2] = tested on: W3110-ΔnadC with pPro-nadB_pCJ1-nadA; assay: as above
Description: as §1

[3] = tested on: W3110-ΔnadC with pPro-nadB_pCJ1-nadA and pCL1920; assay: Sensitivity to quinolinic acid, control strain; details: 13 g/L quinolinic acid in medium
Description: as §1
(§2) To figure out whether the KefA membrane protein influenced the introduction of quinolinic acid, under the same method as Example 2-4(1), the kefA gene-deficient strain and the kefA gene-enhanced strain were subjected to evaluation of sensitivity to quinolinic acid.

[4] = tested on: W3110-ΔnadC with pPro-nadB_pCJ1-nadA and pCL_PrhtB-kefA; assay: Sensitivity to quinolinic acid, kefA-enhanced strain
Description: as §1
The kefA gene obtained through PCR procedures was recovered through agarose gel elution, and then, was treated with restriction enzymes EcoRV and HindIII. Afterwards, the kefA gene was subjected to ligation into a pCL1920_pRhtB vector treated with restriction enzymes EcoRV and HindIII, leading to the expression of the kefA gene linked to a pRhtB promoter. The vector prepared therefrom was named a pCL_pRhtB-kefA vector.
as §2

[5] = tested on: W3110-ΔnadCΔkefA with pPro-nadB_pCJ1-nadA and pCL1920; assay: Sensitivity to quinolinic acid, kefA-deficient strain
Description: as §1, §2

[6] = 13 g/L quinolinic acid in medium

Q: How did the OD600 ([1]; 13 g/L of quinolinic acid in medium (pH 7.0 with KOH)) turn out when O=C(O)c1cccnc1C(=O)O [quinolinic acid, 2,3-pyridine-dicarboxylic acid] was run?
A: 4.5

Q: And the Glucose consumption ([1]; 13 g/L of quinolinic acid in medium)?
A: 6.0 g/L

Q: What about the OD600 ([2]; 13 g/L of quinolinic acid in medium (pH 7.0 with KOH), 33° C., 16 to 24 hours) of the same compound?
A: 4.9

Q: And the Glucose consumption ([2]; 13 g/L of quinolinic acid in medium, 33° C., 16 to 24 hours)?
A: 6.0 g/L

Q: What about the “growth and development and glucose-consumption speed, decreased to” value ([2]; quinolinic acid additionally added to the medium (13 g/L) versus 0 g/L, strains of Table 5) of the same compound?
A: 40%

Q: And the Glucose consumption [3]?
A: 6.2 g/L

Q: And the OD600 [3]?
A: 5.0

Q: What about the Glucose consumption [4, 6] of the same compound?
A: 3.2 g/L

Q: What about the OD600 [4, 6] of the same compound?
A: 2.1

Q: And the “growth and development and glucose consumption speed compared to control strain” value ([4]; quinolinic acid additionally added to the medium, kefA-enhanced strain versus control strain)?
A: 50%

Q: What about the Glucose consumption [5, 6] of the same compound?
A: 8.0 g/L

Q: What about the OD600 [5, 6] of the same compound?
A: 8.2

Q: What about the “growth and development and glucose consumption speed compared to control strain” value ([5]; quinolinic acid additionally added to the medium, kefA-deficient strain versus control strain) of the same compound?
A: up to 110%
